Paper PMC8710297, “Identification of potent SENP1 inhibitors that inactivate SENP1/JAK2/STAT signaling pathway and overcome platinum drug resistance in ovarian cancer” (Clinical and Translational Medicine, 2021)
Values joined by “and” are separate entries in the source; they are usually repeats but may differ in a detail not shown here. Equal entries are not always repeated.

How the values were obtained:
SENP1 [1] = target: T1, SENP1 (Homo sapiens, UniProt Q9P0U3); test: SENP1 activity in cells (SUMOylated JAK2, Western blot quantification); assay type: cell-based; set-up: endogenous in cells; host or cells: IGROV1 CR cells; settings: IGROV1 CR cells, 48 h
T1 sequence (Q9P0U3 1-644): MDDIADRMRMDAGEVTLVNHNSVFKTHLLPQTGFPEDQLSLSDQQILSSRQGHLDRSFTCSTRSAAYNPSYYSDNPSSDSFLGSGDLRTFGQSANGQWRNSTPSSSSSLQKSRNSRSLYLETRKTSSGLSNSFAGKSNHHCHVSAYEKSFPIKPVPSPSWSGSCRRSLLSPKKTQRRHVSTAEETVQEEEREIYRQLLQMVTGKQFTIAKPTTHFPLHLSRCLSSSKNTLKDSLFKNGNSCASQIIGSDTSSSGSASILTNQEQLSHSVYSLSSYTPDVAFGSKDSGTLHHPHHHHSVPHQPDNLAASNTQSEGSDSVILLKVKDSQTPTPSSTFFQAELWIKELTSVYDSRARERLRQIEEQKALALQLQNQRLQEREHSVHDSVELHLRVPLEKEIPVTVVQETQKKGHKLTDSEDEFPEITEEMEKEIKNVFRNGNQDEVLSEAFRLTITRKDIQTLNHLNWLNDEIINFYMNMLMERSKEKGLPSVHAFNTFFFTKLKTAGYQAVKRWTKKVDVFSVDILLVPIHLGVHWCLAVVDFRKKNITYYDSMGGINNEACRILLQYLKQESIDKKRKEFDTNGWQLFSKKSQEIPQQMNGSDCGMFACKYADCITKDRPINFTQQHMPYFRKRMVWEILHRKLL
Experimental: (§1) (A) Collection of Momordin Ic (Mc) natural compound analogues. […] Cell proliferation was determined by the sulforhodamine B (SRB) assay. […] IGROV1 CR cells were incubated with Mc at indicated concentrations for 48 h and then harvested for Western blot for indicated proteins. […] IGROV1 CR cells were incubated with UA and then treated as in C. […] Intensity of SUMOylated JAK2 was measured by Quantity One software. […] Recombinant His‐JAK2 was SUMOylated by in vitro SUMOylation assay, and then SUMOylated JAK2 proteins were incubated with or without recombinant GST‐SENP1 together with Mc for 3 h. […] In vitro assay was performed as in (F).
(A) Synthesis of UA derivatives. Reagents and conditions: (i) Ac2O, DMAP, Pyridine, r.t.; (ii) Oxalyl chloride, CH2Cl2, r.t., overnight; (iii) amines, TEA, r.t., 0.5–4 h; (iv) NaOH a.q., MeOH/THF, r.t.; (v) amines, MeOH, reflux; (vi) K2CO3, DMF, 60°C. The detail of synthesis was included in supplemental materials. […] (C) IGROV1 CR cells treated with indicated UAMMC9 for 48 h. Cells were then harvested and lysates were resolved on sodium dodecyl sulphate‐polyacrylamide gel electrophoresis, followed by immunoblotting for indicated proteins. (D) Cellular thermal shift assay to examine the interaction of UAMMC9 with SENP1. IGROV1 CR cells were incubated with DMSO or UAMMC9 for 4 h before treatment as in Figure 2A. (E) In vitro thermal shift assay to analyze the interactions of UAMMC9 with purified GST‐SENP1(C603A). Stability of SENP1(C603A) was analyzed by using Western blot against SENP1 antibody. […] Surface of hydrophobic amino acid residues in catalytic cleft was shown in yellow and that of hydrophilic amino acid residues was shown in magenta. Key amino acid residues were highlighted. […] The pictures were generated by Chimera.

SENP1 [2] = target: T1, SENP1; test: In vitro deSUMOylation assay (SUMOylated His-JAK2 + recombinant GST-SENP1); assay type: biochemical; settings: read-out: SENP1 inhibition in vitro IC50
Experimental: as §1, with “(F). […]” for “(F).”

[3] = intensity of SUMOylated JAK2, read-out: SENP1 inhibition in cells IC50
[4] = recombinant GST-SENP1, SUMOylated His-JAK2, 3 h

CC1(C)CC[C@]2(C(=O)O)CC[C@]3(C)C(=CC[C@@H]4[C@@]5(C)CC[C@H](O[C@@H]6O[C@H](C(=O)O)[C@@H](O)[C@H](O[C@@H]7OC[C@@H](O)[C@H](O)[C@H]7O)[C@H]6O)C(C)(C)[C@@H]5CC[C@]43C)[C@@H]2C1 [Mc, Momordin Ιc]
IC50 (SENP1 [1]; [3]): 31800 nM
IC50 (SENP1 [2]; [4]): 19900 nM

C[C@H]1[C@H](C)CC[C@]2(C(=O)O)CC[C@]3(C)C(=CC[C@@H]4[C@@]5(C)CC[C@H](O)C(C)(C)[C@@H]5CC[C@]43C)[C@H]12 [UA, ursolic acid, reference compound]
IC50 (SENP1 [1]; [3]): 240 nM
IC50 (SENP1 [2]; [4]): 6.4 nM

C[C@H]1[C@H](C)CC[C@]2(C(=O)NCC(=O)N(C)CCO)CC[C@]3(C)C(=CC[C@@H]4[C@@]5(C)CC[C@H](O)C(C)(C)[C@@H]5CC[C@]43C)[C@H]12 [UAMMC9]
IC50 (SENP1 [1]; SUMOylated JAK2, read-out: SENP1 activity in cells IC50): 150 nM and 151 nM
IC50 (SENP1 [2]; recombinant SENP1, SUMOylated JAK2): 196 nM
